Consider two compounds from patent publication US10131659B2, “Iodonium analogs as inhibitors of NADPH oxidases and other flavin dehydrogenases; formulations thereof; and uses thereof” (priority 2014, dated 2018).

Data set [1] has as its system HT-29 human colon cancer cells. The experiment in a line: Clonogenic assay, HT-29 cells. Format: cell-based. As to conditions: for IC50: Homo sapiens. Here is the method: Several iodonium analog compounds were analyzed for inhibition of HT-29 growth using a clonogenic assay performed as described in Doroshow et al Biochem. Biophys. Res. Commun. 135: 330-335, 1986.

Another data set concerns the target T1, NOX4 (Homo sapiens, UniProt Q9NPH5).
T1 construct: expressed in transfected cells; host or cells: HEK293
T1 sequence (Q9NPH5 1-578): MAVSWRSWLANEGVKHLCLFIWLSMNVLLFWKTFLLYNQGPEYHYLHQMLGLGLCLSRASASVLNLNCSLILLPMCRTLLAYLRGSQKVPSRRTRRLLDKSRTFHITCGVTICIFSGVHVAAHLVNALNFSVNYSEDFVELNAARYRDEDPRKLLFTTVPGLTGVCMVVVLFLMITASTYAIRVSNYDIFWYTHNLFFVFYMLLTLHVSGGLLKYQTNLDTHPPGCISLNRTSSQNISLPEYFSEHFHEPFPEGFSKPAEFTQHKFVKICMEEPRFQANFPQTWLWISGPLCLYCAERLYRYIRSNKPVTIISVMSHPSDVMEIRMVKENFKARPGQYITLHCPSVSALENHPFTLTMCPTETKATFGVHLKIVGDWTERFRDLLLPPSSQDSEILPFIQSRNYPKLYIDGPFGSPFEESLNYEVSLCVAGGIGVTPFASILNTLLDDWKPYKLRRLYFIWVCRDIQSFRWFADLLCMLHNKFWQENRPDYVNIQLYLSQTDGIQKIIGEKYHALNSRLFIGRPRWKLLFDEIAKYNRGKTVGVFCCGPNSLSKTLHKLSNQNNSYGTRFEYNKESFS
T1 sequence (P13498 2-195 partner limits assumed): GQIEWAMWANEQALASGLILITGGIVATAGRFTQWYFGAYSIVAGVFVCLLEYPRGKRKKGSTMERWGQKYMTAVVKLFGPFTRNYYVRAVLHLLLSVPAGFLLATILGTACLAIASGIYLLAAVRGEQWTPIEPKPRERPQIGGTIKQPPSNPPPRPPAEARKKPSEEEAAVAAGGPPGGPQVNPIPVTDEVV
The experiment in a line: NOX4-dependent H2O2 production, Amplex Red assay in reconstituted HEK293 cells. Format: cell-based. The settings on record: 3-5 independent experiments; exposure for 30 min; read-out: IC50 ± SE, NOX4 HEK293. Here is the method:
H2O2 was measured by Amplex Red assay to determine NOX4 or Duox2 activity in fully reconstituted HEK293 cells. The method conducted was similar to the approach disclosed in Jaquet et al in Brit J. Pharmacology 164: 507-520, 2011 using somewhat different cell models for the NOX isoforms and we studied Duox2 in our own cell model.

Another data set addresses T2, NOX1/A1/O1 (Homo sapiens, UniProt Q9Y5S8).
T2 construct: expressed in transfected cells; host or cells: HEK293
The experiment in a line: NOX1-dependent ROS production, luminescence assay for O2.- in HEK293 cells expressing the NOX1 complex. Type of data set: cell-based. The settings on record: 3-5 independent experiments; exposure for 30 min; read-out: IC50 ± SE, NOX1/A1/O1 HEK 293.

The subject of data set [2] is NOX1, NOX2, NOX4, NOX5, and DUOX2. The experiment in a line: Screening for NADPH oxidase isoform specificity in cellular models (all isoforms). Type of data set: cell-based, human. Here is the method: To evaluate compound specificity, a luminescence assay for O2.^− was used with HEK293 cells expressing all components of the NOX1 complex; fully differentiated HL-60 cells expressing active NOX2; and UACC257 melanoma cells that exclusively express active NOX5. H2O2 was measured by Amplex Red assay to determine NOX4 or Duox2 activity in fully reconstituted HEK293 cells. The method conducted was similar to the approach disclosed in Jaquet et al in Brit J. Pharmacology 164: 507-520, 2011 using somewhat different cell models for the NOX isoforms and we studied Duox2 in our own cell model.

The target of a further data set is T3, NOX5 (Homo sapiens, UniProt Q96PH1).
T3 sequence (Q96PH1 1-765): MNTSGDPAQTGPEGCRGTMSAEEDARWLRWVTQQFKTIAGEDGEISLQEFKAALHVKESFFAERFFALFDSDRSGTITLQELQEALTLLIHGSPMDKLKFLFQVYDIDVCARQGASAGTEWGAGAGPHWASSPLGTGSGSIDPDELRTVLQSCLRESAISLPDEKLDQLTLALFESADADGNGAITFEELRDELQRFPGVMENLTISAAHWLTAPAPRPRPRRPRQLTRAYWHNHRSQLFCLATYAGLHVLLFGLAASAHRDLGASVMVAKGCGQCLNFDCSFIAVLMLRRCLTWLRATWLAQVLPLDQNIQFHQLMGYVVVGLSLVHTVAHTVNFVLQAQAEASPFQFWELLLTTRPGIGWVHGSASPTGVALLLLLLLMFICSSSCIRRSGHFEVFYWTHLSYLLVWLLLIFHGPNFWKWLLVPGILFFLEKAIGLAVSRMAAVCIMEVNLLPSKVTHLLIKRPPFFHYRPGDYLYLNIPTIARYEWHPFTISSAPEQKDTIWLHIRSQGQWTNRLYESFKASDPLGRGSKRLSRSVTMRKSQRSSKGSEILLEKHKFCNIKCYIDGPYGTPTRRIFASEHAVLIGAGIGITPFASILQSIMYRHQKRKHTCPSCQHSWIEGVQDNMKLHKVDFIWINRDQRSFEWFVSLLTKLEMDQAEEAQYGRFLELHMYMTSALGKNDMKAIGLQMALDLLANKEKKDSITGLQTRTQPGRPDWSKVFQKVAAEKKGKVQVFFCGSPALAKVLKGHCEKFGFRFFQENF
The experiment in a line: NOX5-dependent ROS production, luminescence assay for O2.- in UACC257 melanoma cells. Type of data set: cell-based. The settings on record: 3-5 independent experiments; exposure for 30 min; read-out: IC50 ± SE, NOX5 UACC-257.

A further data set has as its target T4, NOX2 (Homo sapiens, UniProt P04839).
T4 construct: fully differentiated HL-60 cells expressing active NOX2; endogenous in cells; host or cells: differentiated HL-60
The experiment in a line: NOX2-dependent ROS production, luminescence assay for O2.- in differentiated HL-60 cells. As to conditions: 3-5 independent experiments; exposure for 30 min; read-out: IC50 ± SE, NOX2 HL-60. Format: cell-based.

Data set [3] concerns ROS production in HT-29 human colon cancer cells. The experiment in a line: ROS production in HT-29 cells (chemiluminescence / DCF analytical cytometry). As to conditions: treatment for 24 hr with 10 nM. Type of data set: cell-based.
The subject of data set [4] is HT-29 human colon cancer cells. As to conditions: Free Rad. Biol. Med. 57: 162-165, 2013; cited from earlier work.
The subject of data set [5] is HT-29 human colon cancer cells. The experiment in a line: Growth inhibition of HT-29 cells by MTT assay. Format: cell-based. The settings on record: Homo sapiens, HT-29; 48 hr drug exposure; read-out: IC50, HT-29 human colon cancer cell growth. Here is the method: The compounds were analyzed for growth inhibition of HT-29 human colon cancer cells by MTT assay: 48 hr, drug exposures over several orders of concentration. The MTT assay was performed as described in Wu et al J. Immunology 190: 1859-1872, 2013.

[6] abbreviates: HT-29, read-out: IC50 (±SE) clonogenic survival, 6 hrs drug exposure, 6 hrs exposure.

Regarding `O=S(=O)([O-])C(F)(F)F.c1csc([I+]c2cccs2)c1` [Compound 3, di-2-thienyliodonium triflate], the “IC50 clonogenic survival, 2 hrs drug exposure (result in words)” value in data set [1] (2 hrs exposure) is on record as “No Inhibition”. Further, the IC50 was found to be 91200 ± 58800 nM in data set [1] (setting [6]); 29700 ± 41500 nM at NOX4; 2220 ± 1210 nM at NOX1/A1/O1; 1200 ± 1120 nM at NOX5; 1490 ± 646 nM on NOX2. Moreover, the “potency compared with parent molecule (DTI)” value in data set [2] was “more potent than its parent molecule”.

For `c1ccc2c(c1)[I+]c1ccccc1-2` [Compound 13, Diphenyleneiodonium chloride, reference compound], the “cytotoxic or cytostatic character” value in [1] is reported as “cytostatic”. Also, the “exposure required to inhibit growth / cell reproduction” value in data set [1] is recorded as “requires prolonged exposure”. Also, the IC50 is around 10 nM in data set [1] (HT-29, 240 h, 10 days exposure, read-out: IC50 clonogenic survival, 10 days drug exposure); 9300 ± 3900 nM in [1] (HT-29, read-out: IC50 (±SE) clonogenic survival, 2 hrs drug exposure, 2 hrs exposure); 799 ± 180 nM in data set [1] (setting [6]); 300 nM in data set [5]. The “ROS production in HT-29 cells” value in data set [3] was “significantly decreased”. Besides, the “effect on cell cycle progression” value in data set [4] is on record as “only G1 block”.
